# Tested on: HUVECs
# Assay: Syntenin-1 stimulation and inhibition in HUVECs (qRT-PCR)
# Assay type: cell-based, human
# Details: Syntenin-1 1000 ng/ml, mTORi 1 μM, cMYCi 50 μM
# Method: FIGS. 11A-J show Syntenin-1 reprogrammed endothelial cells display a robust inflammatory phenotype. Relative expression of Syntenin-1 (FIG. 11A) or SDC-1 (FIG. 11B) was determined by RNAseq (Lewis M J, et al. Cell reports. 2019; 28:2455-2470 e2455) in synovial tissue biopsies from RA non-responsive (Non-R)(ΔDAS28≤0.6, n=16-23) and moderate (ΔDAS28 1.2 & >0.6, n=21) and good responsive (ΔDAS28>1.2, n=35-50) patients. […] HUVECs were treated with PBS (ctrl) or Syntenin-1 (1000 ng/ml) for 6 h and transcription of IRFs (FIG. 11E), inflammatory mediators (FIG. 11F), TLRs (FIG. 11I), and pro-repair factors (FIG. 11J) were assessed by qRT-PCR (n=7-12). HUVECs were treated with PBS or Syntenin-1 (1000 ng/ml) in the presence or absence of SDC-1 Ab (SDCab; 1:100), IL-5R Ab (IL5Ra; 2 μg/ml), or PDZli (PDZ1; 10 μM) for 6 h before quantifying transcription levels of TNFα (FIG. 11G) and IL-1β (FIG. 11H), (5-7). Data are presented as mean±SEM; significant differences were determined by the Mann-Whitney test, 2way ANOVA, or one-way ANOVA. *p<0.05, **p<0.01, ***p<0.001, ****p<0.0001. […]
# Syntenin-1 stimulation and inhibition. […] Cells were subsequently harvested in TRIzol reagent (Life Technologies) or RIPA buffer (Cell Signaling Technology) for mRNA quantification and western blot analysis; conditioned media was collected for ELISA.
# Quantitative Real-Time PCR. […]
smiles,measurement,setting,value
"CO[C@H]1C[C@@H]2CC[C@@H](C)[C@@](O)(O2)C(=O)C(=O)N2CCCC[C@H]2C(=O)O[C@H]([C@H](C)C[C@@H]2CC[C@@H](OCCO)[C@H](OC)C2)CC(=O)[C@H](C)/C=C(\C)[C@@H](O)[C@@H](OC)C(=O)[C@H](C)C[C@H](C)/C=C/C=C/C=C/1C [mTORi, Everolimus]",TNF expression in Syntenin-1-reconfigured endothelial cells,"HIF1αi 2 μM, FIG. 13H",diminished
same,Syntenin-1-elevated HIF1α expression levels,FIG. 13E,dysregulated
